{"source": "patent US6949581B2", "about": "“Water-soluble mono-PEGylated tetrapyrrole derivatives for photodynamic therapy and method of production” (CeramOptec Industries, Inc., priority 2003, dated 2005)", "key": {"[1]": {"settings": "concentrated (>1%) solution cannot be generated by Nakazato technique; cited from earlier work"}, "[2]": {"system": "HeLa (human cervix carcinoma cells)", "assay": "Phototoxicity in HeLa cells under irradiation at 662 nm, MTT assay", "type": "cell-based", "settings": "30-minute incubation, 10 J/cm^2 irradiation", "experimental": "Illumination was performed at 662 nm (Ceralas PDT laser, BioLitec AG, Germany; 150 mW/cm^2, 5-20 J/cm^2) after a 30-minute incubation period. Cell survival was measured using the MTT assay. Values are expressed as percentages of illuminated, but non-incubated controls. Experiments were performed in octuplets."}, "[3]": {"settings": "4° C. in the dark, cited from earlier work"}}, "note": "Structures can show the parent of a compound that is named as a salt."}
{"compound": "C=Cc1c(C)c2cc3nc(c4c5[nH]c(cc6nc(cc1[nH]2)C(C)=C6CC)c(C)c5C(=O)[C@@H]4C(=O)OC)[C@@H](CCC(=O)O)[C@@H]3C", "note": "[sodium salt of pheophorbide a (4), sodium salt of pheophorbide a]", "values": [{"measurement": "concentration of injectable solution in water that can be generated", "setting": "[1]", "result": "≤ 1", "unit": "%"}]}
{"compound": "salt of pheophorbide a (5) with N-methyl-D-glucamine", "values": [{"measurement": "IC50 phototoxicity", "setting": "[2]", "result": 8.0, "unit": "µg/mL"}, {"measurement": "IC90 phototoxicity", "setting": "[2]", "result": 22.0, "unit": "µg/mL"}]}
{"compound": "trisodium lysyl-chlorin p6", "values": [{"measurement": "stable in an aqueous solution", "setting": "[3]; aqueous solution", "result": "≤ 24", "unit": "h"}, {"measurement": "stable in solid form", "setting": "[3]; solid form", "result": "up to 4 months"}]}
